According to the supplement of paper PMC10307832:

Legend:
Assay in all cases: relative viability (nuclei count vs DMSO), 5 days (fraction); higher = more cells survive
NCI-H322M = system: NCI-H322M
In short: (§1)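 Dosing by pin tool came one day after lung cancer cell lines were seeded in 1536-well plates, using either one drug or a fixed anchor-drug dose plus five library-drug doses (not always all listed) in √10 steps. After 5 days, nuclei were counted on 4× images. Relative viability is treated-well nuclei count divided by vehicle-well nuclei count, and values are medians of duplicate plates.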

NCI-H838 = system: NCI-H838
In short: as §1

NCI-H1666 = system: NCI-H1666
In short: as §1

PC-3 [JPC-3] = system: PC-3 [JPC-3]
In short: as §1

NCI-H1915 = system: NCI-H1915
In short: as §1

UMC-11 = system: UMC-11
In short: as §1

LK-2 = system: LK-2
In short: as §1

NCI-H2087 = system: NCI-H2087
In short: as §1

SK-MES-1 = system: SK-MES-1
In short: as §1

NCI-H1395 = system: NCI-H1395
In short: as §1

NCI-H358 = system: NCI-H358
In short: as §1

PC-14 = system: PC-14
In short: as §1

LCLC-97TM1 = system: LCLC-97TM1
In short: as §1

NCI-H1651 = system: NCI-H1651
In short: as §1

NCI-H2085 = system: NCI-H2085
In short: as §1

NCI-H1792 = system: NCI-H1792
In short: as §1

ABC-1 = system: ABC-1
In short: as §1

NCI-H1355 = system: NCI-H1355
In short: as §1

A-427 = system: A-427
In short: as §1

NCI-H661 = system: NCI-H661
In short: as §1

H3255 = system: H3255
In short: as §1

In the case of O=C(O)CCCCC(CCSCc1ccccc1)SCc1ccccc1 (centres undefined) [CPI-613] + Nc1ncn([C@H]2C[C@H](O)[C@@H](CO)O2)c(=O)n1 [Decitabine] (partner 2 µM), the relative viability (NCI-H322M; first compound 5 µM) is reported as 0.65, the relative viability (NCI-H322M; first compound 15.81 µM) is reported as 0.656 and the relative viability (NCI-H322M; first compound 50 µM) is reported as 0.664. It also gave a relative viability (NCI-H322M; first compound 158.11 µM) of 0.767, a relative viability (NCI-H322M; first compound 500 µM) of 0.703 and a relative viability (NCI-H838; first compound 5 µM) of 0.449. The relative viability (NCI-H838; first compound 15.81 µM) was 0.437, the relative viability (NCI-H838; first compound 50 µM) was 0.386 and the relative viability (NCI-H838; first compound 158.11 µM) was 0.253. It also gave a relative viability (NCI-H838; first compound 500 µM) of 0.104, a relative viability (NCI-H1666; first compound 5 µM) of 0.676 and a relative viability (NCI-H1666; first compound 15.81 µM) of 0.601. It also gave a relative viability (NCI-H1666; first compound 50 µM) of 0.798, a relative viability (NCI-H1666; first compound 158.11 µM) of 0.639 and a relative viability (NCI-H1666; first compound 500 µM) of 0.509. The relative viability (PC-3 [JPC-3]; first compound 5 µM) was 0.799, the relative viability (PC-3 [JPC-3]; first compound 50 µM) was 0.879 and the relative viability (PC-3 [JPC-3]; first compound 158.11 µM) was 0.716. For the same molecule, the relative viability (PC-3 [JPC-3]; first compound 500 µM) was 0.622, the relative viability (NCI-H1915; first compound 5 µM) was 0.272 and the relative viability (NCI-H1915; first compound 15.81 µM) was 0.266. The relative viability (NCI-H1915; first compound 50 µM) was 0.256, the relative viability (NCI-H1915; first compound 158.11 µM) was 0.235 and the relative viability (NCI-H1915; first compound 500 µM) was 0.114. It also gave a relative viability (UMC-11; first compound 5 µM) of 0.574, a relative viability (UMC-11; first compound 15.81 µM) of 0.573 and a relative viability (UMC-11; first compound 50 µM) of 0.611. The relative viability (UMC-11; first compound 158.11 µM) was 0.562, the relative viability (UMC-11; first compound 500 µM) was 0.544 and the relative viability (LK-2; first compound 5 µM) was 0.336. It also gave a relative viability (LK-2; first compound 15.81 µM) of 0.274, a relative viability (LK-2; first compound 50 µM) of 0.275 and a relative viability (LK-2; first compound 158.11 µM) of 0.313. It also gave a relative viability (LK-2; first compound 500 µM) of 0.283, a relative viability (NCI-H2087; first compound 5 µM) of 0.261 and a relative viability (NCI-H2087; first compound 15.81 µM) of 0.218. For the same molecule, the relative viability (NCI-H2087; first compound 50 µM) was 0.221, the relative viability (NCI-H2087; first compound 158.11 µM) was 0.115 and the relative viability (NCI-H2087; first compound 500 µM) was 0.0094. It also gave a relative viability (SK-MES-1; first compound 5 µM) of 0.422, a relative viability (SK-MES-1; first compound 15.81 µM) of 0.367 and a relative viability (SK-MES-1; first compound 50 µM) of 0.377. The relative viability (SK-MES-1; first compound 158.11 µM) was 0.19, the relative viability (SK-MES-1; first compound 500 µM) was 0.103 and the relative viability (NCI-H1395; first compound 5 µM) was 0.667. It also gave a relative viability (NCI-H1395; first compound 15.81 µM) of 0.654, a relative viability (NCI-H1395; first compound 50 µM) of 0.764 and a relative viability (NCI-H1395; first compound 158.11 µM) of 0.675. For the same molecule, the relative viability (NCI-H1395; first compound 500 µM) was 0.597, the relative viability (NCI-H358; first compound 5 µM) was 0.235 and the relative viability (NCI-H358; first compound 15.81 µM) was 0.2. The relative viability (NCI-H358; first compound 50 µM) was 0.219, the relative viability (NCI-H358; first compound 158.11 µM) was 0.136 and the relative viability (NCI-H358; first compound 500 µM) was 0.02. The relative viability (PC-14; first compound 5 µM) was 0.266, the relative viability (PC-14; first compound 15.81 µM) was 0.201 and the relative viability (PC-14; first compound 50 µM) was 0.23. For the same molecule, the relative viability (PC-14; first compound 158.11 µM) was 0.109, the relative viability (PC-14; first compound 500 µM) was 0.0133 and the relative viability (LCLC-97TM1; first compound 5 µM) was 0.251. The relative viability (LCLC-97TM1; first compound 15.81 µM) was 0.213, the relative viability (LCLC-97TM1; first compound 50 µM) was 0.261 and the relative viability (LCLC-97TM1; first compound 158.11 µM) was 0.0572. The relative viability (LCLC-97TM1; first compound 500 µM) was 0.051, the relative viability (NCI-H1651; first compound 5 µM) was 0.625 and the relative viability (NCI-H1651; first compound 15.81 µM) was 0.504. For the same molecule, the relative viability (NCI-H1651; first compound 50 µM) was 0.661, the relative viability (NCI-H1651; first compound 158.11 µM) was 0.523 and the relative viability (NCI-H1651; first compound 500 µM) was 0.562. For the same molecule, the relative viability (NCI-H2085; first compound 5 µM) was 0.536, the relative viability (NCI-H2085; first compound 15.81 µM) was 0.525 and the relative viability (NCI-H2085; first compound 50 µM) was 0.568. For the same molecule, the relative viability (NCI-H2085; first compound 158.11 µM) was 0.437, the relative viability (NCI-H2085; first compound 500 µM) was 0.208 and the relative viability (NCI-H1792; first compound 5 µM) was 0.571. For the same molecule, the relative viability (NCI-H1792; first compound 15.81 µM) was 0.449, the relative viability (NCI-H1792; first compound 50 µM) was 0.572 and the relative viability (NCI-H1792; first compound 158.11 µM) was 0.253. The relative viability (NCI-H1792; first compound 500 µM) was 0.0627, the relative viability (ABC-1; first compound 5 µM) was 1.18 and the relative viability (ABC-1; first compound 15.81 µM) was 1.28. The relative viability (ABC-1; first compound 50 µM) was 1.37, the relative viability (ABC-1; first compound 158.11 µM) was 0.698 and the relative viability (ABC-1; first compound 500 µM) was 0.864. For the same molecule, the relative viability (NCI-H1355; first compound 5 µM) was 0.34, the relative viability (NCI-H1355; first compound 15.81 µM) was 0.337 and the relative viability (NCI-H1355; first compound 50 µM) was 0.342. It also gave a relative viability (NCI-H1355; first compound 158.11 µM) of 0.341, a relative viability (NCI-H1355; first compound 500 µM) of 0.114 and a relative viability (A-427; first compound 5 µM) of 0.55. For the same molecule, the relative viability (A-427; first compound 15.81 µM) was 0.551, the relative viability (A-427; first compound 50 µM) was 0.582 and the relative viability (A-427; first compound 158.11 µM) was 0.495. The relative viability (A-427; first compound 500 µM) was 0.435, the relative viability (NCI-H661; first compound 5 µM) was 0.547 and the relative viability (NCI-H661; first compound 15.81 µM) was 0.49. The relative viability (NCI-H661; first compound 50 µM) was 0.577, the relative viability (NCI-H661; first compound 158.11 µM) was 0.381 and the relative viability (NCI-H661; first compound 500 µM) was 0.0993. The relative viability (H3255; first compound 5 µM) was 0.626, the relative viability (H3255; first compound 15.81 µM) was 0.537 and the relative viability (H3255; first compound 50 µM) was 0.665. It also gave a relative viability (H3255; first compound 158.11 µM) of 0.566 and a relative viability (H3255; first compound 500 µM) of 0.569.
